Where a name gives a salt, the structure may show the parent alone.
Target: PRMT5-MEP50 enzyme complex (Homo sapiens (Human), UniProt O14744)
Test: PRMT5 enzyme activity in vitro assay (methylation of histone H4R3, ELISA absorbance at 450 nm)
Assay type: biochemical
Conditions: SAM, histone H4 peptide, room temperature 2 hours, 8 points from 10 μM to 0.128 nM
Procedure, shortened: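 IC50 was derived from ELISA absorbance at 450 nm, using primary and HRP antibodies against H4R3 methylation on immobilised histone H4 peptide (residues 1-20). Compounds (10 μM to 0.128 nM, 8 points, 1:5) were incubated 2 h at room temperature with the PRMT5-MEP50 complex and SAM, diluted to 5 μg/mL and 2 μM respectively.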

PRMT5-MEP50 enzyme complex, sequence (O14744 2-637): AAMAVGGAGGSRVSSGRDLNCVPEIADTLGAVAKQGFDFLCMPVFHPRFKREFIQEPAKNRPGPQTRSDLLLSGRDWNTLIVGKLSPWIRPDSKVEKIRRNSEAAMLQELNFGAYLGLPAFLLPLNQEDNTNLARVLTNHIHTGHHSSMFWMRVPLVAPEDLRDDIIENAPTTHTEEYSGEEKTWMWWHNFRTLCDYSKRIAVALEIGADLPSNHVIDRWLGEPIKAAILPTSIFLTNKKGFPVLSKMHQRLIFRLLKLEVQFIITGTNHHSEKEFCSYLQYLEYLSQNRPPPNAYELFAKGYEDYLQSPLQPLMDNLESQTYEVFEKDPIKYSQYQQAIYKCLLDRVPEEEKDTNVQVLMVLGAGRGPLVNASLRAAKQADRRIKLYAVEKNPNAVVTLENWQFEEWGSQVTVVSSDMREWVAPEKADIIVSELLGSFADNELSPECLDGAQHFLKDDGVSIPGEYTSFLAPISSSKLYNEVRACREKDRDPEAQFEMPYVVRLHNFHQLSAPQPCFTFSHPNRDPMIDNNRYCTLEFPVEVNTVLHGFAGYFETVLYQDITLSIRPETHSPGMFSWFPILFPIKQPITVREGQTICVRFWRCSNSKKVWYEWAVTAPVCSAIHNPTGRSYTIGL
PRMT5-MEP50 enzyme complex, sequence (Q9BQA1 2-342 partner): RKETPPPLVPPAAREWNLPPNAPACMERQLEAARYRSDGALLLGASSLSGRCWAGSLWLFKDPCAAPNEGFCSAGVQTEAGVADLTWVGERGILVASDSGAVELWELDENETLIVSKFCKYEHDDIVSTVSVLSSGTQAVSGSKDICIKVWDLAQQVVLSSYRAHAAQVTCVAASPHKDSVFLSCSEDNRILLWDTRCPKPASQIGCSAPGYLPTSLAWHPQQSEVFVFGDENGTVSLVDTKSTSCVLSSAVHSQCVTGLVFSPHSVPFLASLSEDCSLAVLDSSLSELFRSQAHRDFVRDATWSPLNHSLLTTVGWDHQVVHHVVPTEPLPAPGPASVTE

| Compound | IC50 [nM] |
| --- | --- |
| CN1CCN(C[C@H](O)CN2CCc3ccccc3C2)C(=O)c2ccc(CN3CCOCC3)cc21 [Example 115, 4-[(2R)-3-(3,4-dihydro-1H-isoquinolin-2-yl)-2-hydroxy-propyl]-1-methyl-8-(morpholinomethyl)-2,3-dihydro-1,4-benzodiazepin-5-one] | 1 to 100 |
| C[C@@H]1CN(C[C@H](O)CN2CCc3ccccc3C2)C(=O)c2ccc(OC3CCN(CCO)CC3)cc2O1 [Example 261, (2R)-4-[(2R)-3-(3,4-dihydro-1H-isoquinolin-2-yl)-2-hydroxy-propyl]-8-[[1-(2-hydroxyethyl)-4-piperidyl]oxy]-2-methyl-2,3-dihydro-1,4-benzoxazepin-5-one di hydrochloride] | 100 to 1000 |
| CC1(O)CCN(Cc2ccc3c(c2)OCCN(C[C@H](O)CN2CCc4ccccc4C2)C3=O)C1 (stereo partly drawn) [Example 40, 4-[(2R)-3-(3,4-dihydro-1H-isoquinolin-2-yl)-2-hydroxy-propyl]-8-[(3-hydroxy-3-methyl-pyrrolidin-1-yl)methyl]-2,3-dihydro-1,4-benzoxazepin-5-one] | 1 to 100 |
| O=C1c2ccc(CN3CCCC(CO)C3)cc2OCCN1C[C@H](O)CN1CCc2ccccc2C1 (stereo partly drawn) [Example 37, 4-[(2R)-3-(3,4-dihydro-1H-isoquinolin-2-yl)-2-hydroxy-propyl]-8-[[3-(hydroxymethyl)-1-piperidyl]methyl]-2,3-dihydro-1,4-benzoxazepin-5-one] | 1000 to 10000 |
| O=C1c2ccc(CN3CCn4cccc4C3)cc2OCCN1C[C@H](O)CN1CCc2ccccc2C1 [Example 249, 4-[(2R)-3-(3,4-dihydro-1H-isoquinolin-2-yl)-2-hydroxypropyl]-8-(3,4-dihydro-1H-pyrrolo[1,2-a]pyrazin-2-ylmethyl)-2,3-dihydro-1,4-benzoxazepin-5-one] | 100 to 1000 |
| O=C1c2ccc(OCc3ccc(F)nc3)cc2OCCN1C[C@H](O)CN1CCc2ccccc2C1 [Example 61, 4-[(2R)-3-(3,4-dihydro-1H-isoquinolin-2-yl)-2-hydroxy-propyl]-8-[(6-fluoro-3-pyridyl)methoxy]-2,3-dihydro-1,4-benzoxazepin-5-one] | 100 to 1000 |
| CCN(CC)Cc1ccc2c(c1)OCCN(C[C@H](O)CN1CCc3ccccc3C1)C2=O [Example 26, 8-(diethylaminomethyl)-4-[(2R)-3-(3,4-dihydro-1H-isoquinolin-2-yl)-2-hydroxy-propyl]-2,3-dihydro-1,4-benzoxazepin-5-one] | 100 to 1000 |
| C[C@@H]1CN(C[C@H](O)CN2CCc3ccccc3C2)C(=O)c2ccc(CN3CCC4(CC3)COC4)cc2O1 [Example 252, (2R)-4-[(2R)-3-(3,4-dihydro-1H-isoquinolin-2-yl)-2-hydroxypropyl]-2-methyl-8-(2-oxa-7-azaspiro[3.5]nonan-7-ylmethyl)-2,3-dihydro-1,4-benzoxazepin-5-one] | 100 to 1000 |
| O=C1c2ccc(OC3CCN(CCF)CC3F)cc2OCCN1C[C@H](O)CN1CCc2ccccc2C1 (stereo partly drawn) [Example 207, 4-[(2R)-3-(3,4-dihydro-1H-isoquinolin-2-yl)-2-hydroxy-propyl]-8-[[3-fluoro-1-(2-fluoroethyl)-4-piperidyl]oxy]-2,3-dihydro-1,4-benzoxazepin-5-one] | 100 to 1000 |
| O=C1c2ccc(CN3CC4(COC4)C3)cc2OCCN1C[C@H](O)CN1CCc2ccccc2C1 [Example 28, 4-[(2R)-3-(3,4-dihydro-1H-isoquinolin-2-yl)-2-hydroxy-propyl]-8-(2-oxa-6-azaspiro[3.3]heptan-6-ylmethyl)-2,3-dihydro-1,4-benzoxazepin-5-one] | 1 to 100 |
| O=C1c2ccc(CN3CCCC(F)(F)C3)cc2OCCN1C[C@H](O)CN1CCc2ccccc2C1 [Example 42, 8-[(3,3-difluoro-1-piperidyl)methyl]-4-[(2R)-3-(3,4-dihydro-1H-isoquinolin-2-yl)-2-hydroxy-propyl]-2,3-dihydro-1,4-benzoxazepin-5-one] | 100 to 1000 |
| CC1(C)CN(C[C@H](O)CN2CCc3ccccc3C2)C(=O)c2ccc(CN3CCCCC3)nc2O1 [Example 197, 4-[(2R)-3-(3,4-dihydro-1H-isoquinolin-2-yl)-2-hydroxy-propyl]-2,2-dimethyl-8-(1-piperidylmethyl)-3H-pyrido[3,2-f][1,4]oxazepin-5-one] | 100 to 1000 |
| O=C1c2ccc(C3=CCOCC3)cc2OCCN1C[C@H](O)CN1CCc2ccccc2C1 [Example 20, 4-[(2R)-3-(3,4-dihydro-1H-isoquinolin-2-yl)-2-hydroxy-propyl]-8-(3,6-dihydro-2H-pyran-4-yl)-2,3-dihydro-1,4-benzoxazepin-5-one] | 100 to 1000 |
| O=C1c2ccc(OC3CCOCC3)cc2OCCN1C[C@H](O)CN1CCc2ccccc2C1 [Example 64, 4-[(2R)-3-(3,4-dihydro-1H-isoquinolin-2-yl)-2-hydroxy-propyl]-8-tetrahydropyran-4-yloxy-2,3-dihydro-1,4-benzoxazepin-5-one] | 1 to 100 |
| O=C1c2ccc(C3CCOCC3)cc2OCCN1C[C@H](O)CN1CCc2ccccc2C1 [Example 21, 4-[(2R)-3-(3,4-dihydro-1H-isoquinolin-2-yl)-2-hydroxy-propyl]-8-tetrahydropyran-4-yl-2,3-dihydro-1,4-benzoxazepin-5-one] | 100 to 1000 |
| CC1(C)CN(C[C@H](O)CN2CCc3ccccc3C2)C(=O)c2ccc(C(=O)N3CCn4cccc4C3)cc2O1 [Example 209, 4-[(2R)-3-(3,4-dihydro-1H-isoquinolin-2-yl)-2-hydroxy-propyl]-8-(3,4-dihydro-1H-pyrrolo[1,2-a]pyrazine-2-carbonyl)-2,2-dimethyl-3H-1,4-benzoxazepin-5-one] | 100 to 1000 |
| O=C1c2ccc(OC3CCN(CCO)CC3)cc2OCCN1C[C@H](O)CN1CCc2ccccc2C1 [Example 162, 4-[(2R)-3-(3,4-dihydro-1H-isoquinolin-2-yl)-2-hydroxy-propyl]-8-[[1-(2-hydroxyethyl)-4-piperidyl]oxy]-2,3-dihydro-1,4-benzoxazepin-5-one] | 100 to 1000 |
| CC(C)N1CC=C(c2ccc3c(c2)OCCN(C[C@H](O)CN2CCc4ccccc4C2)C3=O)CC1 [Example 19, 4-[(2R)-3-(3,4-dihydro-1H-isoquinolin-2-yl)-2-hydroxy-propyl]-8-(1-isopropyl-3,6-dihydro-2H-pyridin-4-yl)-2,3-dihydro-1,4-benzoxazepin-5-one] | 100 to 1000 |
| CC(=O)N1CCC(COc2ccc3c(c2)OCCN(C[C@H](O)CN2CCc4ccccc4C2)C3=O)CC1 [Example 70, 8-[(1-acetyl-4-piperidyl)methoxy]-4-[(2R)-3-(3,4-dihydro-1H-isoquinolin-2-yl)-2-hydroxy-propyl]-2,3-dihydro-1,4-benzoxazepin-5-one] | 100 to 1000 |
| CC1(C)CN(C[C@H](O)CN2CCc3ccccc3C2)C(=O)c2ccc(OC3CCN(CCO)CC3(F)F)nc2O1 (stereo partly drawn) [Example 256, 8-[[3,3-difluoro-1-(2-hydroxyethyl)-4-piperidyl]oxy]-4-[(2R)-3-(3,4-dihydro-1H-isoquinolin-2-yl)-2-hydroxy-propyl]-2,2-dimethyl-3H-pyrido[3,2-f][1,4]oxazepin-5-one] | 100 to 1000 |
| C[C@@H]1CN(C[C@H](O)CN2CCc3ccccc3C2)C(=O)c2ccc(OC3CC4CCC(C3)N4CCF)cc2O1 (stereo partly drawn) [Example 242] | 1 to 100 |
| COCCN1CCC(Oc2ccc3c(n2)OC(C)(C)CN(C[C@H](O)CN2CCc4ccccc4C2)C3=O)CC1 [Example 262, 4-[(2R)-3-(3,4-dihydro-1H-isoquinolin-2-yl)-2-hydroxy-propyl]-8-[[1-(2-methoxyethyl)-4-piperidyl]oxy]-2,2-dimethyl-3H-pyrido[3,2-f][1,4]oxazepin-5-one] | 100 to 1000 |
| O=C1c2ccc(OCCN3CCOCC3)cc2OCCN1C[C@H](O)CN1CCc2ccccc2C1 [Example 73, 4-[(2R)-3-(3,4-dihydro-1H-isoquinolin-2-yl)-2-hydroxy-propyl]-8-(2-morpholinoethoxy)-2,3-dihydro-1,4-benzoxazepin-5-one] | 100 to 1000 |
| CN(CCF)C1CCC(Oc2ccc3c(c2)OCCN(C[C@H](O)CN2CCc4ccccc4C2)C3=O)CC1 (stereo partly drawn) [Example 199, 4-[(2R)-3-(3,4-dihydro-1H-isoquinolin-2-yl)-2-hydroxypropyl]-8-[4-[2-fluoroethyl(methyl)amino]cyclohexoxy]-2,3-dihydro-1,4-benzoxazepin-5-one] | 1 to 100 |
| O=C(c1ccc2c(c1)OCCN(C[C@H](O)CN1CCc3ccccc3C1)C2=O)C1CC1 [Example 216, 8-(cyclopropanecarbonyl)-4-[(2R)-3-(3,4-dihydro-1H-isoquinolin-2-yl)-2-hydroxy-propyl]-2,3-dihydro-1,4-benzoxazepin-5-one] | 1 to 100 |
| CC(=O)N1CCC(Oc2ccc3c(c2)OC(C)(C)CN(C[C@H](O)CN2CCc4ccccc4C2)C3=O)CC1 [Example 180, 8-[(1-acetyl-4-piperidyl)oxy]-4-[(2R)-3-(3,4-dihydro-1H-isoquinolin-2-yl)-2-hydroxy-propyl]-2,2-dimethyl-3H-1,4-benzoxazepin-5-one] | 1 to 100 |
| O=C1c2ccc(OCC3CCCCO3)cc2OCCN1C[C@H](O)CN1CCc2ccccc2C1 (stereo partly drawn) [Example 65, 4-[(2R)-3-(3,4-dihydro-1H-isoquinolin-2-yl)-2-hydroxy-propyl]-8-(tetrahydropyran-2-ylmethoxy)-2,3-dihydro-1,4-benzoxazepin-5-one] | 100 to 1000 |
| O=C1c2ccccc2OCCN1C[C@H](O)CN1CCc2ccccc2C1 [Example 149, 4-[(2R)-3-(3,4-dihydro-1H-isoquinolin-2-yl)-2-hydroxy-propyl]-2,3-dihydro-1,4-benzoxazepin-5-one] | 100 to 1000 |
| O=C1CCCN1CCOc1ccc2c(c1)OCCN(C[C@H](O)CN1CCc3ccccc3C1)C2=O [Example 74, 4-[(2R)-3-(3,4-dihydro-1H-isoquinolin-2-yl)-2-hydroxy-propyl]-8-[2-(2-oxopyrrolidin-1-yl)ethoxy]-2,3-dihydro-1,4-benzoxazepin-5-one] | 100 to 1000 |
| CN1CCCC(COc2ccc3c(c2)OCCN(C[C@H](O)CN2CCc4ccccc4C2)C3=O)C1 (stereo partly drawn) [Example 107, 4-[(2R)-3-(3,4-dihydro-1H-isoquinolin-2-yl)-2-hydroxy-propyl]-8-[(1-methyl-3-piperidyl)methoxy]-2,3-dihydro-1,4-benzoxazepin-5-one] | 1 to 100 |

Source: patent US11111237B2, “Bicyclic compound and use thereof” (SK BIOPHARMACEUTICALS CO., LTD., priority 2019, dated 2021)
